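48-hour exposure; five concentrations; linearly interpolated endpoints. Here, GI50 denotes the concentration required for 50% inhibition of growth. TGI is the concentration that stops growth completely.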
Key:
Assay in all cases: growth of human tumour cells (NCI), 48 h
[1] = system: OVCAR-3 ovarian
[2] = system: MALME-3M melanoma
[3] = system: SNB-19 CNS
[4] = system: K-562 leukemia
[5] = system: HL-60(TB) leukemia
[6] = system: UO-31 renal
[7] = system: UACC-257 melanoma
[8] = system: HOP-92 NSCLC
[9] = system: NCI/ADR-RES ovarian
[10] = system: BT-549 breast

Row | Compound | TGI [1] [µM] | TGI [2] [µM] | TGI [3] [µM] | TGI [4] [µM] | TGI [5] [µM] | TGI [6] [µM] | TGI [7] [µM] | TGI [8] [µM] | GI50 [9] [µM] | TGI [9] [µM] | GI50 [1] [µM] | GI50 [2] [µM] | GI50 [3] [µM] | GI50 [8] [µM] | GI50 [10] [µM] | TGI [10] [µM] | GI50 [6] [µM] | GI50 [7] [µM] | GI50 [5] [µM]
1 | O=[N+]([O-])c1ccc(C[P+](c2ccccc2)(c2ccccc2)c2ccccc2)cc1 | > 100 | > 100 | > 100 | > 100 | > 100 | > 100 | 47.3 | – | – | – | – | – | – | – | – | – | – | – | –
2 | O=C(COc1ccc(Cl)cc1)N1N=C(c2ccc(Cl)cc2)CC1(O)c1ccccc1 (configuration not stated) | 39.2 | 47.4 | > 100 | > 42.7 | 28 | > 100 | 44.3 | 44.1 | – | – | – | – | – | – | – | – | – | – | –
3 | O=C(c1ccccc1)c1ccccc1-c1ccccc1 | 4.55 | 65.7 | > 100 | – | – | 98.1 | > 100 | 47.1 | 1 | 8.02 | 1.72 | 8.79 | 5.45 | 3.36 | 10.3 | > 100 | 6.99 | 14.5 | –
4 | CCN(Cc1cc(Nc2nc(C)cn3c(-c4cn[nH]c4)cnc23)sn1)C(C)(C)CO | 2.68 | 16.2 | 9.57 | – | – | 10.1 | 9.93 | 0.0714 | 1.12 | > 44.7 | 0.0481 | 0.648 | 0.11 | 0.0119 | 0.0458 | 1.18 | 0.0428 | 0.622 | –
5 | O/N=C1/C(=C/c2ccc3c(c2)OCO3)CCCC1C(NO)c1ccc2c(c1)OCO2 (configuration not stated) | 30.6 | 48.2 | > 100 | 71 | 36.4 | 58.5 | 33.9 | – | – | – | – | – | – | – | – | – | – | – | –
6 | COC(=O)NC(=O)c1cn(C2OC(CO)C(O)C2O)c(=O)[nH]c1=O (configuration not stated) | > 100 | > 100 | > 100 | > 100 | > 100 | > 100 | > 100 | > 100 | – | – | – | – | – | – | – | – | – | – | –
7 | Cc1cc(CC(=O)NCCO)n(CCO)c(=O)c1 | > 100 | > 100 | > 100 | > 100 | > 100 | > 100 | > 100 | > 100 | – | – | – | – | – | – | – | – | – | – | –
8 | CC1=C(C(=O)Nc2cc(=O)n(C)c(=O)n2C)C(c2ccco2)C(C(=O)Nc2cc(=O)n(C)c(=O)n2C)=C(C)N1 | > 100 | > 100 | > 100 | > 100 | > 100 | > 100 | > 100 | > 100 | – | – | – | – | – | – | – | – | – | – | –
9 | Cc1c2ccncc2c(C)c2c1[nH]c1ccc(OC(C)C)cc12 | 2.98 | 3.16 | 3.12 | 4.4 | 4.46 | 2.89 | 3.3 | 3.22 | – | – | – | – | – | – | – | – | – | – | –
10 | Cc1cccc(/C=C/c2c(C(=O)/C=C/c3ccccc3)c(C)nc3ccccc23)c1 | 2.81 | 3.2 | 3.04 | – | 4.34 | 2.51 | 3.28 | 4 | 1.85 | 4.65 | 1.46 | 1.79 | 1.67 | 1.48 | – | – | 1.26 | 1.65 | 1.83
